From US8592394B2, “Synthetic derivatives beta glycolipids and compositions thereof for the treatment of pathologic disorders” (Enzo Therapeutics, Inc., priority 2003, dated 2013)

Key:
[1] = tested on: IL-10; experiment: Serum IL-10 by ELISA in ConA induced hepatitis; type: in vivo, mice; settings: for serum IL-10: intraperitoneal
Protocol: Serum levels of IFN-γ, TGF-β, TNF-α IL-2, IL-4, IL-6, IL-10 and IL-12 were determined by “sandwich” ELISA, using commercial kits (Quantikine, R&D Systems, Minneapolis, Minn., USA). Serum insulin was also determined by “sandwich” ELISA too, using the commercial kit of Mercodia AB (Uppsala, Sweden) according to the manufacturer's instructions.

[2] = tested on: STAT4; experiment: Immunoblot of liver lysates: STAT4; type: in vivo, mice; settings: IP
Protocol: For ConA induced hepatitis experiments spleen and liver lysates were lysed in RIPA buffer containing 50 mM Tris, pH 7.4, 1% NP-40, 150 mM NaCl, 0.1% SDS, 0.5% sodium deoxycholate and protease inhibitors (5 μg/ml, Sigma), with protease and phosphatase (Sigma, Rehovot, Israel).
Lysates were centrifuged twice at 4° C. for 10 minutes in 14000 rpm. Equivalent amounts of lysates (15 μg/lane), determined by Bradford assay (Bio-Rad, Rehovot, Israel), were separated by sodium dodecyl sulfate polyacrylamide gel electrophoresis (SDS-PAGE) and transferred to nitrocellulose membranes.
Blots were developed with horseradish peroxidase-conjugated secondary antibodies (Jackson Laboratories Bar Harbor, Me.) and Western Blot-Luminol Reagent (Santa Cruz Biotechnology, CA, USA). Cell counting and western Blot quantification was performed using total Lab (Phoretix, USA) software.

[3] = tested on: ConA induced hepatitis; experiment: ConA induced hepatitis model: serum AST and ALT (liver injury); type: in vivo, mice; settings: for enzyme levels (serum ALT and AST): Con A
Protocol: The effect of β-glycolipids on liver injury was evaluated by serum aspartyl transaminase (AST) and alanine aminotransferase (ALT) activities, which were determined by a clinical chemistry analyzer, Reflovet Plus (Roche Diagnostics, GmbH, Mannheim, Germany).
Con A was purchased from MP Biomedicals (Ohio, USA), was dissolved (0.5 mg, 20 mg/kg) in 200 μl of 50 mM Tris pH 7, 150 mM NaCl, 4 mM CaCl2, and was injected intravenously into mice (tail vain). Sera from individual mice were obtained 8 or 20 h after Con A injection. Serum activities of alanine aminotransferase (ALT) and aspartate aminotransferase (AST) were measured by an automatic analyzer.
To determine the clinical and immunological effect of the novel synthetic compounds of the invention, immune-mediated hepatitis was examined using the ConA induced hepatitis model. Therefore, the different synthetic and natural derivatives of β-glycolipids of Formula II, III and IV [AD2897 (ALIB-97), AD2898, and AD2899, respectively], were examined using seven groups of C57Bl/6 mice, as summarized by Table 1. Mice in experimental groups A-G (eight mice in each group) were injected with ConA. Group A mice were administered with 100 μl intraperitoneal injection of solvent only [15% Cremophor EL/15% ethanol/70% PBS](C:E). Mice in groups B, C, D, E, F, and G were administered with intraperitoneal injection of 1 μg or 10 μg of each of the three analogs Formulated in solvent as described in Experimental Procedures. Animals were sacrificed and examined.
In order to evaluate the potential beneficial effect of the three novel analogues of the invention on immune-mediated hepatitis, the effect of treatment with two concentrations of the three synthetic analogs on liver damage in all tested groups was assessed by determination of serum aspartate aminotransferase (AST), and alanine aminotransferase (ALT) levels.

[4] = tested on: mouse splenocytes; experiment: In vitro stimulation of splenocytes: supernatant IFN-γ by ELISA; type: cell-based
Protocol: Splenocytes were prepared as described above and plated at 2.0×10^5 cells per well in 96-well plates in RPMI-1640 supplemented with 5% FCS, […] 2-mercaptoethanol, 2 mM glutamine, 1% sodium pyruvate, and antibiotics. Titrated volumes of GC, α-GalCer, and ALIB-97 diluted in DMSO were added at final concentrations of 100 ng, 1 μg, and 10 μg/ml. After 72 h of culture, 1 μCi of [^3H] thymidine (Amersham Biosciences) was added to each well, and the cells were cultured for an additional 16 to 18 h. Cells were harvested with a cell harvester (Tomtec, Orange, Conn.), and the uptake of radioactivity was measured with a β-plate reader. To evaluate IFN-γ secretion in vitro, supernatants were harvested after 90 h of culture with glycolipids and stored until the cytokine levels were measured by ELISA.

[5] = B6 mice, intraperitoneal, Con A hepatitis, p<0.05
[6] = B6 mice, oral administration, 20 h after Con A injection, vs control p<0.01
[7] = ConA induced hepatitis, C57Bl/6 mice, intraperitoneal, 10 μg/mice

## CCCCCCCCCCCCCC=CC(O)C(CO[C@@H]1OC(CO)[C@@H](O)C(O)C1O)NC(=S)NC12CC3CC(CC(C3)C1)C2 (stereo in doubt) [ALIB-97, N-adamantyl-N′-glucosylsphingosine thiourea]
[1]; B6 mice
  serum IL-10: increased
[1]; B6 mice, oral administration, after 20 hours
  IL-10 serum levels: Decreased
[1]; CD1d−/− mice
  serum IL-10: increased
[1]; Jα18−/− mice
  serum IL-10: increased
[2]; B6 mice
  STAT4 expression in the liver: strikingly decreased
[2]; CD1d−/− mice
  STAT4 expression in the liver: remained unchanged
[3]; [5]
  reduction of serum ALT levels: more than 60%
  reduction of serum AST levels: more than 60%
[3]; [6]
  serum ALT levels: significantly reduced
  serum AST levels: significantly reduced
[3]; CD1d−/− mice, intraperitoneal
  enzyme levels (serum ALT and AST): did not significantly alter
[3]; [7]
  serum ALT levels: decreased
  serum AST levels: decreased
[3]; Jα18 KO mice
  liver damage induced by Con A treatment: exacerbated
[3]; Jα18−/− mice, intraperitoneal
  enzyme levels (serum ALT and AST): did not significantly alter
[4]; CD1d−/− splenocytes
  IFN-γ secretion: absence
[4]; Jα18−/− splenocytes
  IFN-γ secretion: absence
[4]; mouse (B6) splenocytes, 100 ng
  activation of IFN-γ secretion: more than 9 fold
